Several values for one entry are separate records, joined by “and”; a condition that tells them apart may be missing. Equal entries are not always repeated. Structures can show the parent of a compound that is named as a salt.
Target: T1, CHOK1 cells engineered to overexpress human CCR2 (Homo sapiens, UniProt P41597)
T1 construct: expressed in transfected cells; host or cells: CHOK1 cells
Assay: Antibody dependent cellular cytotoxicity (ADCC) reporter assay (Example 199)
Format: cell-based
Settings: with anti-cotinine antibody SEQ ID NO: 11/12; CHOK1-human CCR2 target cells, Jurkat FcγRIIIa NFAT-luciferase reporter cells; 12-18 hours; read-out: ADCC Reporter Assay pEC50 (converted)
Procedure, shortened: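 CHOK1-hCCR2 target cells are co-incubated for 12–18 h with Jurkat FcγRIIIa/NFAT-luciferase reporter cells, ARM compound (1 pM–10 μM) and anti-cotinine antibody with a DE-mutant human IgG1 Fc (0.01–200 μg/mL). Luminescence is expressed as signal:background against no-compound wells; EC50 comes from nonlinear fit and is reported as pEC50, averaged across runs.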

Structure (SMILES)	EC50
CC(C)N(C)[C@@H]1CC[C@H](N2CC[C@H](Nc3ncnc4ccc(C(F)(F)F)cc34)C2=O)[C@H](NC(=O)CCCCOCCCCCCCCOCCCCNC(=O)[C@H]2CC(=O)N(C)[C@@H]2c2cccnc2)C1 [Example 161, (2S,3S)-N-(4-((8-((5-(((1R,2S,5R)-5-(Isopropyl(methyl)amino)-2-((S)-2-oxo-3-((6-(trifluoromethyl)quinazolin-4-yl)amino)pyrrolidin-1-yl)cyclohexyl)amino)-5-oxopentyl)oxy)octyl)oxy)butyl)-1-methyl-5-oxo-2-(pyridin-3-yl)pyrrolidine-3-carboxamide]	1580 pM
CC(C)N(C)[C@@H]1CC[C@H](N2CC[C@H](Nc3ncnc4ccc(C(F)(F)F)cc34)C2=O)[C@H](NC(=O)C2CCN(c3cnc(NCCOCCOCCNC(=O)[C@H]4CC(=O)N(C)[C@@H]4c4cccnc4)cn3)CC2)C1 [Example 162, N-((1R,2S,5R)-5-(Isopropyl(methyl)amino)-2-((S)-2-oxo-3-((6-(trifluoromethyl)quinazolin-4-yl)amino)pyrrolidin-1-yl)cyclohexyl)-1-(5-((2-(2-(2-((2S,3S)-1-methyl-5-oxo-2-(pyridin-3-yl)pyrrolidine-3-carboxamido)ethoxy)ethoxy)ethyl)amino)pyrazin-2-yl)piperidine-4-carboxamide]	1580 pM
CC(C)N(C)[C@@H]1CC[C@H](N2CC[C@H](Nc3ncnc4ccc(C(F)(F)F)cc34)C2=O)[C@H](NC(=O)CCCCCCCCC(=O)NCCCCCCCCCCNC(=O)[C@H]2CC(=O)N(C)[C@@H]2c2cccnc2)C1 [Example 165, N^1-((1R,2S,5R)-5-(isopropyl(methyl)amino)-2-((S)-2-oxo-3-((6-(trifluoromethyl)quinazolin-4-yl)amino)pyrrolidin-1-yl)cyclohexyl)-N^10-(10-((2S,3S)-1-methyl-5-oxo-2-(pyridin-3-yl)pyrrolidine-3-carboxamido)decyl)decanediamide]	1260 pM
CC(C)N(C)[C@@H]1CC[C@H](N2CC[C@H](Nc3ncnc4ccc(C(F)(F)F)cc34)C2=O)[C@H](NC(=O)CCOCCC(=O)N2CCC3(CCC(C(=O)NCCNC(=O)[C@H]4CC(=O)N(C)[C@@H]4c4cccnc4)CC3)CC2)C1 [Example 167, 3-(3-(3-(((1R,2S,5R)-5-(Isopropyl(methyl)amino)-2-((S)-2-oxo-3-((6-(trifluoromethyl)quinazolin-4-yl)amino)pyrrolidin-1-yl)cyclohexyl)amino)-3-oxopropoxy)propanoyl)-N-(2-((2S,3S)-1-methyl-5-oxo-2-(pyridin-3-yl)pyrrolidine-3-carboxamido)ethyl)-3-azaspiro[5.5]undecane-9-carboxamide]	1260 pM
CC(C)N(C)[C@@H]1CC[C@H](N2CC[C@H](Nc3ncnc4ccc(C(F)(F)F)cc34)C2=O)[C@H](NC(=O)[C@H]2CC[C@@H](NC(=O)C3CCC4(CC3)CCN(CCNC(=O)[C@H]3CC(=O)N(C)[C@@H]3c3cccnc3)CC4)CC2)C1 [Example 170, N-((1S,4s)-4-(((1R,2S,5R)-5-(Isopropyl(methyl)amino)-2-((S)-2-oxo-3-((6-(trifluoromethyl)quinazolin-4-yl)amino)pyrrolidin-1-yl)cyclohexyl)carbamoyl)cyclohexyl)-3-(2-((2S,3S)-1-methyl-5-oxo-2-(pyridin-3-yl)pyrrolidine-3-carboxamido)ethyl)-3-azaspiro[5.5]undecane-9-carboxamide]	1000 pM
CC(C)N(C)[C@@H]1CC[C@H](N2CC[C@H](Nc3ncnc4ccc(C(F)(F)F)cc34)C2=O)[C@H](NC(=O)C2CCN(C3CCN(C(=O)CCOCCOCCNC(=O)[C@H]4CC(=O)N(C)[C@@H]4c4cccnc4)CC3)CC2)C1 [Example 172, N-((1R,2S,5R)-5-(Isopropyl(methyl)amino)-2-((S)-2-oxo-3-((6-(trifluoromethyl)quinazolin-4-yl)amino)pyrrolidin-1-yl)cyclohexyl)-1′-(3-(2-(2-((2S,3S)-1-methyl-5-oxo-2-(pyridin-3-yl)pyrrolidine-3-carboxamido)ethoxy)ethoxy)propanoyl)-[1,4′-bipiperidine]-4-carboxamide]	794 pM
CC(C)N(C)[C@@H]1CC[C@H](N2CC[C@H](Nc3ncnc4ccc(C(F)(F)F)cc34)C2=O)[C@H](NC(=O)[C@H]2CC[C@@H](NC(=O)CCOCCOCCNC(=O)CCCNC(=O)[C@H]3CC(=O)N(C)[C@@H]3c3cccnc3)CC2)C1 [Example 176, (2S,3S)-N-(4-((2-(2-(3-(((1S,4s)-4-(((1R,2S,5R)-5-(Isopropyl(methyl)amino)-2-((S)-2-oxo-3-((6-(trifluoromethyl)quinazolin-4-yl)amino)pyrrolidin-1-yl)cyclohexyl)carbamoyl)cyclohexyl)amino)-3-oxopropoxy)ethoxy)ethyl)amino)-4-oxobutyl)-1-methyl-5-oxo-2-(pyridin-3-yl)pyrrolidine-3-carboxamide]	794 pM and 398 pM
CC(C)N(CCOCCOCCC(=O)N[C@H]1CC[C@@H](C(=O)N[C@@H]2C[C@H](N(C)C(C)C)CC[C@@H]2N2CC[C@H](Nc3ncnc4ccc(C(F)(F)F)cc34)C2=O)CC1)C(=O)CCCNC(=O)[C@H]1CC(=O)N(C)[C@@H]1c1cccnc1 [Example 177]	501 pM and 316 pM
CC(C)N(C)[C@@H]1CC[C@H](N2CC[C@H](Nc3ncnc4ccc(C(F)(F)F)cc34)C2=O)[C@H](NC(=O)CCCN2CCC3(CCC(C(=O)NCCNC(=O)[C@H]4CC(=O)N(C)[C@@H]4c4cccnc4)CC3)CC2)C1 [Example 183, 3-(4-(((1R,2S,5R)-5-(Isopropyl(methyl)amino)-2-((S)-2-oxo-3-((6-(trifluoromethyl)quinazolin-4-yl)amino)pyrrolidin-1-yl)cyclohexyl)amino)-4-oxobutyl)-N-(2-((2S,3S)-1-methyl-5-oxo-2-(pyridin-3-yl)pyrrolidine-3-carboxamido)ethyl)-3-azaspiro[5.5]undecane-9-carboxamide, 3 Formic acid salt]	501 pM
CC(C)N(C)[C@@H]1CC[C@H](N2CC[C@H](Nc3ncnc4ccc(C(F)(F)F)cc34)C2=O)[C@H](NC(=O)C2CCN(C3CCN(C4CCN(CCCCNC(=O)[C@H]5CC(=O)N(C)[C@@H]5c5cccnc5)CC4)CC3)CC2)C1 [Example 185, N-((1R,2S,5R)-5-(isopropyl(methyl)amino)-2-((S)-2-oxo-3-((6-(trifluoromethyl)quinazolin-4-yl)amino)pyrrolidin-1-yl)cyclohexyl)-1″-(4-((2S,3S)-1-methyl-5-oxo-2-(pyridin-3-yl)pyrrolidine-3-carboxamido)butyl)-[1,4′:1′,4″-terpiperidine]-4-carboxamide]	501 pM
CC(C)N(C)[C@@H]1CC[C@H](N2CC[C@H](Nc3ncnc4ccc(C(F)(F)F)cc34)C2=O)[C@H](NC(=O)[C@H]2CC[C@H](C3CCN(CCOCCOCCNC(=O)[C@H]4CC(=O)N(C)[C@@H]4c4cccnc4)CC3)CC2)C1 [Example 189, (2S,3S)-N-(2-(2-(2-(4-((1R,4r)-4-(((1R,2S,5R)-5-(Isopropyl(methyl)amino)-2-((S)-2-oxo-3-((6-(trifluoromethyl)quinazolin-4-yl)amino)pyrrolidin-1-yl)cyclohexyl)carbamoyl)cyclohexyl)piperidin-1-yl)ethoxy)ethoxy)ethyl)-1-methyl-5-oxo-2-(pyridin-3-yl)pyrrolidine-3-carboxamide]	6310 pM
CC(C)N(C)[C@@H]1CC[C@H](N2CC[C@H](Nc3ncnc4ccc(C(F)(F)F)cc34)C2=O)[C@H](NC(=O)[C@H]2CC[C@@H](NC(=O)CCCOCCCOCCCNC(=O)[C@H]3CC(=O)N(C)[C@@H]3c3cccnc3)CC2)C1 [Example 193, (2S,3S)-N-(3-(3-(4-(((1S,4s)-4-(((1R,2S,5R)-5-(Isopropyl(methyl)amino)-2-((S)-2-oxo-3-((6-(trifluoromethyl)quinazolin-4-yl)amino)pyrrolidin-1-yl)cyclohexyl)carbamoyl)cyclohexyl)amino)-4-oxobutoxy)propoxy)propyl)-1-methyl-5-oxo-2-(pyridin-3-yl)pyrrolidine-3-carboxamide]	398 pM and 126 pM
CC(C)N(C)[C@@H]1CC[C@H](N2CC[C@H](Nc3ncnc4ccc(C(F)(F)F)cc34)C2=O)[C@H](NC(=O)CCCCCCCCNCCOCCOCCOCCOCCNC(=O)[C@H]2CC(=O)N(C)[C@@H]2c2cccnc2)C1 [Example 195, (2S,3S)-N-(24-(((1R,2S,5R)-5-(Isopropyl(methyl)amino)-2-((S)-2-oxo-3-((6-(trifluoromethyl)quinazolin-4-yl)amino)pyrrolidin-1-yl)cyclohexyl)amino)-24-oxo-3,6,9,12-tetraoxa-15-azatetracosyl)-1-methyl-5-oxo-2-(pyridin-3-yl)pyrrolidine-3-carboxamide, 3Trifluoroacetic acid salt]	158 pM
CC(C)N(C)[C@@H]1CC[C@H](N2CC[C@H](Nc3ncnc4ccc(C(F)(F)F)cc34)C2=O)[C@H](NC(=O)[C@H]2CC[C@@H](NC(=O)CCOCCCOCCCNC(=O)[C@H]3CC(=O)N(C)[C@@H]3c3cccnc3)CC2)C1 [Example 197, (2S,3S)-N-(3-(3-(3-(((1S,4s)-4-(((1R,2S,5R)-5-(Isopropyl(methyl)amino)-2-((S)-2-oxo-3-((6-(trifluoromethyl)quinazolin-4-yl)amino)pyrrolidin-1-yl)cyclohexyl)carbamoyl)cyclohexyl)amino)-3-oxopropoxy)propoxy)propyl)-1-methyl-5-oxo-2-(pyridin-3-yl)pyrrolidine-3-carboxamide]	251 pM
CC(C)N(C)[C@@H]1CC[C@H](N2CC[C@H](Nc3ncnc4ccc(C(F)(F)F)cc34)C2=O)[C@H](NC(=O)[C@H]2CC[C@H](N3CCN(CCOCCOCCNC(=O)[C@H]4CC(=O)N(C)[C@@H]4c4cccnc4)CC3)CC2)C1 [compound 190]	2510 pM
CC(C)N(C)[C@@H]1CC[C@H](N2CC[C@H](Nc3ncnc4ccc(C(F)(F)F)cc34)C2=O)[C@H](NC(=O)CCCCCCCCNCCCCCCCCCCNC(=O)[C@H]2CC(=O)N(C)[C@@H]2c2cccnc2)C1 [compound 196]	251 pM

— patent US20250136722A1, “CYTOTOXICITY TARGETING CHIMERAS” (GLAXOSMITHKLINE INTELLECTUAL PROPERTY DEVELOPMENT LIMITED, priority 2021, published 2025)
